Data set [1] has as its system bacteriophage Φ6. The settings on record: platelet concentrates, normal oxygen tension, UVA; cited from earlier work.
In data set [2] the test system is non-enveloped parvoviruses. The note with it: cited from earlier work.
Data set [3] has as its system PA-Lymphoblastoid Cell Line. In words: PA-Lymphoblastoid cell viability under oxygen deprivation in the presence of sensitizers. The settings on record: PA-Lymphoblastoid cells; for cell count at Time (hour) 0 / cell count at Time (hour) 4 / cell count at Time (hour) 20: solutions and cells bubbled with nitrogen 15 minutes; for cell count at Time (hour) 0: time 0 hour; for cell count at Time (hour) 4: time 4 hour; for cell count at Time (hour) 20: time 20 hour. It is filed as cell-based. The protocol:
PA-Lymphoblastoid Cell Line: Study of the effect of oxygen deprivation in the presence of 3 sensitizers Six solutions were prepared having the solutions and the cells from each of the 6 sets were “bubbled” with nitrogen separately for 15 minutes before being mixed.
The results of this study are shown graphically in FIG. 5.

Data set [4] is described as follows: Water solubility. The class given is physicochemical. The source says: Riboflavin N-oxide, is one example of a flavin N-oxide, it is water soluble and electrically neutral. Additionally, upon fragmentation of the neutral radical, riboflavin N-oxide forms the hydroxyl radical, which damages the nucleic acid, and riboflavin, vitamin B2, which is generally regarded as safe in humans.
In the methods of the present invention, the flavin N-oxides are introduced to the composition containing the blood products. It is preferred that the flavin N-oxides of the present invention are water-soluble. By “water soluble” we mean that it is preferred that the solubility of the flavin N-oxides is at least 100 micromolar in water. An exemplary flavin N-oxide for the methods of the present invention is riboflavin N-oxide. Once introduced to the blood product composition, riboflavin N-oxide, which is electrically neutral, may passively transport into cells, where it is enzymatically activated to form a radical anion. Additionally, riboflavin N-oxide may be activated by electromagnetic radiation. When electromagnetic radiation is used as the activator, the wavelength of light is preferably in the visible region.

Regarding `Cc1oc2c(C)c3oc(=O)cc(C)c3cc2c1CN` [AMT], in data set [1], the “inactivation of the virus bacteriophage Φ6” value is given as “completely inactivate”. The “potency towards the non-enveloped parvoviruses” value in data set [2] is reported as “limited potency”.

Consider `Nc1n[n+]([O-])c2ccccc2[n+]1[O-]` [Tirapazamine (TPZ), Tirapazamine], for which, in data set [3], the “cell count at Time (hour) 0” value is reported as 0.4 million cells/mL, the “cell count at Time (hour) 4” value is on record as 0.4 million cells/mL and the “cell count at Time (hour) 20” value stood at 0.36 million cells/mL.

Turning to `COc1c2occc2cc2ccc(=O)oc12` [8-MOP], the “inactivation of the virus bacteriophage Φ6” value in data set [1] is on record as “completely inactivate”.

For `Cc1cc2nc3c(=O)[nH]c(=O)nc-3n(C[C@H](O)[C@H](O)[C@H](O)CO)c2cc1C` [Riboflavin (RB), Riboflavin], in data set [3], the “cell count at Time (hour) 0” value is 1 million cells/mL, the “cell count at Time (hour) 4” value was 0.9 million cells/mL and the “cell count at Time (hour) 20” value came out at 0.63 million cells/mL.

As to `Cc1cc2c(cc1C)[n+]([O-])c1c(=O)[nH]c(=O)nc-1n2CC(O)C(O)C(O)CO` (centres unmarked) [RBO, riboflavin N-oxide], the hypoxic toxicity entry in data set [3] (oxygen deprivation) was “high hypoxic toxicity”. In data set [3], the “cell count at Time (hour) 0” value is given as 0.45 million cells/mL, the “cell count at Time (hour) 4” value is listed as 0.46 million cells/mL and the “cell count at Time (hour) 20” value stood at 0.06 million cells/mL. Besides, the water solubility result in data set [4] is recorded as “water soluble”.

The record behind these values is patent US6933285B2, “Flavin N-oxides: new anti-cancer agents and pathogen eradication agents” (The Ohio State University, priority 2002, dated 2005).
